Laboratory results: article PMC9738727, “Purification and Characterization of Novel Anti-MRSA Peptides Produced by Brevibacillus sp. SPR-20” (Molecules, 2022)
Ends that are not written are not given here.

Assays:
human erythrocytes = assay: Hemolysis; assay type: cell-based; settings: highest concentration with hemolysis below 10% divided by MIC
Procedure: Human blood (5 mL) from a healthy volunteer was collected in an EDTA tube. The erythrocytes were centrifuged at 700× g for 8 min and washed with PBS pH 7.4 three times. The erythrocytes were diluted with PBS pH 7.4 to reach a 0.5% v/v concentration. The suspension of erythrocytes (50 μL) was transferred to each well in a 96-well plate. The anti-MRSA peptide was dissolved and prepared by performing a 2-fold serial dilution with PBS pH 7.4 before the samples (50 μL) were added to the wells to achieve the final concentrations of 0.25–64 μg/mL. The reactions were incubated at 37 °C for 1 h, and the supernatant was collected by centrifugation at 1000× g for 10 min. The release of hemoglobin was monitored by measuring the absorbance at 540 nm. PBS pH 7.4 and 1% Triton X-100 were used as the negative and positive controls, respectively. The relative hemolysis was determined by normalizing the absorbance of the sample by that of the positive control. Each experiment was performed in three replications.

S. aureus TISTR 517 [1] = assay: Thermal, surfactant and pH stability, remaining activity by agar well diffusion; assay type: physicochemical, Staphylococcus aureus; settings: for % Remaining Activity: P1 15 μg/mL, vancomycin 300 μg/mL, mean ± SD, n=3
Procedure: (§1) The antimicrobial activity was measured by an agar well diffusion test with some modified methods. In brief, single colonies of the tested strains were suspended in 0.85% NaCl, and then the OD at 625 nm was adjusted to 0.1. The cell suspensions were spread on MH agar, and the tested samples (100 μL) were introduced into each well before incubation at 37 °C for 24 h. Each experiment was performed in three independent replicates, and the inhibition zone was measured and expressed as mean ± SD.
(§2) The stability of the anti-MRSA peptide against several conditions was studied. […] The sensitivity of the peptide sample to proteolytic enzymes was investigated by incubating the sample with proteinase K, trypsin, and α-chymotrypsin (1 mg/mL) for 1 h. Surfactant compatibility of the substance was examined by incubating the sample with 1% SDS and 1% Triton X-100 for 1 h (AppliChem GmbH, Darmstadt, Germany). The acid and base hydrolysis property of the substance was assessed by pH adjustment to 2–14 for 1 h before the samples were neutralized to pH 7. After all treatments, the antimicrobial assay by agar well diffusion against S. aureus TISTR 517 and MRSA isolate 2468 was performed in three independent experiments. The stability profiles were presented as the percentage of activity relative to the untreated condition (mean ± SD), and significant difference was determined by the Student’s t-test at a p-value < 0.05.

MRSA isolate 2468 [2] = assay: as above; assay type: physicochemical, Staphylococcus aureus; settings: P1 15 μg/mL, vancomycin 300 μg/mL, mean ± SD, n=3
Procedure: as §1, §2

S. aureus TISTR 517 [3] = assay: Cell lysis (OD 625 nm), leakage of genetic materials (A260) and viable count; assay type: cell-based, Staphylococcus aureus
Procedure: (§3) The lysis of bacterial cells was monitored by measuring the OD reduction at 625 nm, whereas the leakage of genetic material was evaluated by measuring the absorbance at 260 nm. Briefly, the bacterial colonies were collected from MH agar and then washed with PBS pH 7.4 three times. The OD at 625 nm of the washed cells was adjusted to 0.35 with PBS pH 7.4 supplemented with an incomplete medium (4% CAMHB) before the cells were transferred to a 96-well plate (100 μL/well). […] For each treatment condition at different time intervals, the reduction in OD at 625 nm was determined, and the supernatant of the treated samples was collected to measure the absorbance at 260 nm. The experiment was performed in triplicate, and the results were expressed as mean ± SD. Two-way ANOVA and post hoc Tukey’s test (p-value < 0.05) were used to determine the significance of differences between treated and non-treated samples.

MRSA isolate 2468 [4] = assay: as above; assay type: cell-based, Staphylococcus aureus; settings: for cell lysis (OD 625 nm reduction): within 1 h, PBS pH 7.4 + 4% CAMHB, mean ± SD, triplicate
Procedure: as §3

S. aureus TISTR 517 [5] = assay: microbe, parasite or virus in culture; assay type: cell-based, Staphylococcus aureus; settings: P1 at 15 µg/mL, from vancomycin standard curve
Procedure: as §1
(§4) The agar well diffusion test was performed in triplicate for potency determination, using S. aureus TISTR 517 and MRSA isolate 2468 as the tested bacteria. […] The remaining standard and sample solutions were transferred to the other 3 wells. The plates were incubated at 37 °C for 18 h.

MRSA isolate 2468 [6] = assay: microbe, parasite or virus in culture; assay type: cell-based, Staphylococcus aureus; settings: P1 at 15 µg/mL, from vancomycin standard curve
Procedure: as §1, §4

[7] = 60 °C, 1 h, % of untreated sample
[8] = 80 °C, 1 h, % of untreated sample
[9] = 100 °C, 1 h, % of untreated sample
[10] = […], 15 psi, 15 min (autoclave), % of untreated sample
[11] = pH 2, 1 h, then neutralized to pH 7
[12] = pH 4, 1 h, then neutralized to pH 7
[13] = pH 5, 1 h, then neutralized to pH 7
[14] = pH 6, 1 h, then neutralized to pH 7
[15] = pH 8, 1 h, then neutralized to pH 7
[16] = pH 9, 1 h, then neutralized to pH 7
[17] = pH 11, 1 h, then neutralized to pH 7
[18] = pH 12, 1 h, then neutralized to pH 7
[19] = pH 13, 1 h, then neutralized to pH 7
[20] = pH 14, 1 h, then neutralized to pH 7
[21] = sample + 1% SDS, 1 h, % of untreated sample
[22] = sample + 1% Triton X-100, 1 h, % of untreated sample

VVVNVLVKVLPPPVV [Peptide P1]
therapeutic index of hemolysis (TIhemolysis) (human erythrocytes): 16
% Remaining Activity (S. aureus TISTR 517 [1]; [7]): 100.49 ± 0.84%
% Remaining Activity (S. aureus TISTR 517 [1]; [8]): 100.00 ± 0.84%
% Remaining Activity (S. aureus TISTR 517 [1]; [9]): 100.00 ± 0.84%
% Remaining Activity (S. aureus TISTR 517 [1]; [10]): 98.54 ± 1.69%
% Remaining Activity (S. aureus TISTR 517 [1]; [11]): 98.48 ± 3.17%
% Remaining Activity (S. aureus TISTR 517 [1]; [12]): 97.97 ± 5.77%
% Remaining Activity (S. aureus TISTR 517 [1]; [13]): 97.46 ± 2.64%
% Remaining Activity (S. aureus TISTR 517 [1]; [14]): 97.97 ± 3.17%
% Remaining Activity (S. aureus TISTR 517 [1]; pH 7, 1 h): 97.97 ± 1.76%
% Remaining Activity (S. aureus TISTR 517 [1]; [15]): 102.54 ± 3.17%
% Remaining Activity (S. aureus TISTR 517 [1]; [16]): 100.00 ± 1.49%
% Remaining Activity (S. aureus TISTR 517 [1]; [17]): 98.01 ± 2.28%
% Remaining Activity (S. aureus TISTR 517 [1]; [18]): 96.52 ± 2.28%
% Remaining Activity (S. aureus TISTR 517 [1]; [19]): 98.51 ± 1.49%
% Remaining Activity (S. aureus TISTR 517 [1]; [20]): 101.00 ± 1.72%
% Remaining Activity (S. aureus TISTR 517 [1]; [21]): 114.49 ± 3.53 %
% Remaining Activity (S. aureus TISTR 517 [1]; [22]): 125.23 ± 2.92 %
activity remaining under several stress conditions (S. aureus TISTR 517 [1]; text summary of Table 6, both test strains): over 90%
% Remaining Activity (MRSA isolate 2468 [2]; [7]): 100.00 ± 0.79%
% Remaining Activity (MRSA isolate 2468 [2]; [8]): 99.08 ± 0.00%
% Remaining Activity (MRSA isolate 2468 [2]; [9]): 98.62 ± 0.79%
% Remaining Activity (MRSA isolate 2468 [2]; [10]): 98.62 ± 0.79%
% Remaining Activity (MRSA isolate 2468 [2]; [11]): 97.57 ± 1.46%
% Remaining Activity (MRSA isolate 2468 [2]; [12]): 99.03 ± 1.46%
% Remaining Activity (MRSA isolate 2468 [2]; [13]): 97.09 ± 1.68%
% Remaining Activity (MRSA isolate 2468 [2]; [14]): 97.57 ± 3.85%
% Remaining Activity (MRSA isolate 2468 [2]; pH 7, 1 h): 97.57 ± 5.25%
% Remaining Activity (MRSA isolate 2468 [2]; [15]): 97.09 ± 2.22%
% Remaining Activity (MRSA isolate 2468 [2]; [16]): 98.03 ± 1.71%
% Remaining Activity (MRSA isolate 2468 [2]; [17]): 98.03 ± 2.26%
% Remaining Activity (MRSA isolate 2468 [2]; [18]): 97.54 ± 0.00%
% Remaining Activity (MRSA isolate 2468 [2]; [19]): 99.51 ± 0.85%
% Remaining Activity (MRSA isolate 2468 [2]; [20]): 100.00 ± 3.08%
% Remaining Activity (MRSA isolate 2468 [2]; [21]): 117.13 ± 1.60 %
% Remaining Activity (MRSA isolate 2468 [2]; [22]): 115.74 ± 0.80 %
increase of genetic content in the supernatant (A260) (S. aureus TISTR 517 [3]; 30 min, 1×-4× MIC): 1.09–1.60 times
inhibition by viable cell count (S. aureus TISTR 517 [3]; 24 h, 1× MIC): 8.60 ± 0.26%
cell lysis (S. aureus TISTR 517 [3]; 24 h, 1×-4× MIC): more than 39.67%
increase of genetic release (A260) (S. aureus TISTR 517 [3]; 24 h, 1×-4× MIC): 2.05–2.29 times
inhibition by viable cell count (S. aureus TISTR 517 [3]; 24 h, 2× MIC): 67.63 ± 1.96%
inhibition by viable cell count (S. aureus TISTR 517 [3]; 24 h, 4× MIC): 94.35 ± 9.78%
cells destroyed (OD 625 nm reduction) (S. aureus TISTR 517 [3]; first hour, 1× MIC, PBS pH 7.4 + 4% CAMHB, mean ± SD, triplicate): 21.08 ± 1.11%
increase of genetic content in the supernatant (A260) (MRSA isolate 2468 [4]; 30 min, 1×-4× MIC): 1.15–1.47 times
inhibition by viable cell count (MRSA isolate 2468 [4]; 24 h, 1× MIC): 34.46 ± 0.64%
increase of genetic release (A260) (MRSA isolate 2468 [4]; 24 h, 1×-4× MIC): 1.81–2.07 times
inhibition by viable cell count (MRSA isolate 2468 [4]; 24 h, 2× MIC): 64.47 ± 3.56%
inhibition by viable cell count (MRSA isolate 2468 [4]; 24 h, 4× MIC): 96.13 ± 6.70%
cell lysis (OD 625 nm reduction) (MRSA isolate 2468 [4]; 1× MIC): 12.68 ± 13.57%
cell lysis (OD 625 nm reduction) (MRSA isolate 2468 [4]; 2× MIC): 26.13 ± 9.48%
cell lysis (OD 625 nm reduction) (MRSA isolate 2468 [4]; 4× MIC): 20.75 ± 2.75%
vancomycin concentration of equivalent potency (S. aureus TISTR 517 [5]): 76.29 to 87.36 µg/mL
vancomycin concentration of equivalent potency (MRSA isolate 2468 [6]): 85.97 to 109.05 µg/mL
